From US8912360B2, “Methods for preparing ritodrine hydrochloride” (Lundbeck Pharmaceuticals Italy S.p.A., priority 2010, dated 2014)

Assay: Stability / hygroscopicity: water content through Karl Fischer titration after storage
Assay type: physicochemical
Conditions: for hygroscopicity: hydrochloride
Method: The water content was determined through Karl Fischer (KF) titration.
Ritodrine hydrochloride Form I is kept at 40° C. and a relative humidity of 75% for 24 hours. The water content measured through Karl Fischer titration is 0.5% (weight/weight).
Ritodrine hydrochloride Form II is placed in a double polyethylene bag with a desiccant (silica gel) kept in standard conditions for storing active ingredients. After some months the water content of such Ritodrine hydrochloride measured through Karl Fischer titration is 2.2% (weight/weight).

Structure (SMILES): C[C@@H](NCCc1ccc(O)cc1)[C@@H](O)c1ccc(O)cc1.Cl (racemic) [Ritodrine hydrochloride Form I, 4-((1RS,2SR)-1-hydroxy-2-{[2-(4-hydroxyphenyl)ethyl]amino}propyl)phenol hydrochloride]
- water absorption (exposed to a relative humidity of 75%): does not absorb water
- hygroscopicity: non-hygroscopic
- water content measured through Karl Fischer titration (kept at 40° C. and a relative humidity of 75% for 24 hours): 0.5 % (weight/weight)

Structure (SMILES): C[C@@H](NCCc1ccc(O)cc1)[C@@H](O)c1ccc(O)cc1.Cl (racemic) [Ritodrine hydrochloride Form II, 4-((1RS,2SR)-1-hydroxy-2-{[2-(4-hydroxyphenyl)ethyl]amino}propyl)phenol hydrochloride]
- water content measured through Karl Fischer titration (double polyethylene bag with a desiccant (silica gel), standard conditions for storing active ingredients, after some months): 2.2 % (weight/weight)
- hygroscopicity: hygroscopic
- water absorption (not exposed directly to a humid environment, normal controlled storing conditions): absorbs water
